What all share (format): cell-based, mouse
One experiment relates to CHT1. As to the kind of experiment: CHT1 expression in N2a cells. The settings on record: N2a cells (FIG. 7E). The procedure: (§1) Specifically, total RNA extracts from N2a cells were prepared using the Trizol method (Invitrogen, USA) and cDNA was synthesized from RNA by reverse transcription of 1 μg of total RNA using a reverse transcription system (Improm-II, Promega, USA) and oligo dT primers in a total volume of 20 μL. PCR amplification was performed using the primers described in Table 2 (Bioneer, Korea). Quantitative real-time PCR reactions were run on a Rotor-Gene 6000 (Corbett Research, Australia) using SensiMix™ SYBR Hi-ROX Kit (Bioline, U.K.) in 20 μL reaction mixtures. Each real-time-PCR master mix contained 10 μL 2× enzyme master mix, 7.0 μL RNase free water, 1 μL of each primer (10 pM each), and 1 μL diluted template. The PCR was performed with an initial pre-incubation step for 15 min at 95° C., followed by 45 cycles of 95° C. for 15 s, annealing at 52° C. for 15 s, and extension at 72° C. for 10 s. Melting curve analysis was used to confirm formation of the expected PCR product, and products from all assays were additionally tested with 1.2% agarose gel electrophoresis to confirm the correct lengths. […] Relative sample expression levels were calculated using Rotor-Gene 6000 Series Software 1.7, and were expressed relative to β-actin and corrected for between-run variability. Data for the experimental samples were expressed as a fold unit the internal control gene. […]

Experiment [1] relates to MAP-2. Description: MAP-2 mRNA expression in N2a cells (real-time RT-PCR). The settings on record: 5 μg/ml (FIG. 8). The procedure:
as §1

Experiment [2] deals with MAP-2. Description: MAP-2 protein immunocytochemistry in N2a cells. The settings on record: compared with NGF (FIG. 9A). The method, then: (§2) Followed by the RT-PCR analysis, the present inventor investigated whether ginsenosides Re and Rd induce the expression of MAP-2 and p75 and the differentiation of neurons actually, via immunocytochemistry and morphological analysis using optical microscopic observation.
(§3) Specifically, Cultured N2a cells were fixed in 4% paraformaldehyde (in PBS) for 15 min, washed twice with PBS supplemented with 100 mM glycine for 5 min, and incubated with permeabilization buffer consisting of 0.1% Triton X-100 (Sigma-Aldrich, USA) in PBS for 30 min at room temperature. Blocking was performed with 1% bovine serum albumin (BSA, Sigma-Aldrich, USA) for 30 min at room temperature. Then Microtubule-Associated Protein-2 (MAP-2) or VAChT mouse monoclonal antibody 1:200 (Santa Cruz Biotechnology, USA) was added to 1% BSA in PBS with Tween 20 (PBST) and incubated for 2 h at room temperature. Cells were then washed three times with PBS before fluorescein isothiocyanate (FITC)-conjugated anti-mouse immunoglobulin G (IgG) 1:200 (Cell Signaling Technology, USA) was added to 1% BSA for 1 h at room temperature. The cells were rinsed and counterstained with 4,6-diamidino-2-phenylindole (DAPI, Sigma-Aldrich) for 10 min, followed by two PBS washes. […]

The subject of a further experiment is p75. Description: p75 protein immunocytochemistry in N2a cells. The settings on record: compared with NGF (FIG. 9B). The procedure:
as §2, §3

The test system of the next experiment is N2a cells. Description: Morphological analysis of N2a cells (optical microscopy). The settings on record: untreated cells mostly rounded (FIG. 9C). The procedure: as §2, §3
The next experiment relates to ERK. Description: ERK phosphorylation in N2a cells (western blot). The settings on record: compared with NGF (FIG. 10). An excerpt:
(§4) The cholinergic marker ChAT and VAChT are known activate the ERK and Akt lower level path for cholinergic gene expression (Williams et al., Neurosci. Lett., 413: 110-114, 2007; Madziar et al., J. Neurochem., 107: 1284-1293, 2007) by controlling the NGF-TrkA signaling pathway. Thus, the present inventor investigated whether ginsenosides Rd and Re regulate activity of ERK and Akt in N2a cells using through western blot analysis. Specifically, N2a cells were lysed in 1% radioimmunoprecipitation assay (RIPA) buffer containing protease and phosphatase inhibitors (Roche, Mannheim, Germany) and whole cell lysates were separated by 10% sodium dodecyl sulfate polyacrylamide gel electrophoresis (SDS-PAGE). After electrophoresis, proteins were transferred onto polyvinylidene fluoride (PVDF) membranes and the membranes were blocked with 5% skim milk in Tris-buffered saline solution containing 0.1% Tween-20. The membrane was then immunoblotted with primary antibodies, anti-phospho-Akt, anti-phospho-extracellular signal-regulated protein kinase (ERK), anti-ChAT and anti-f3-actin (Santa Cruz Biotechnology, Santa Cruz, USA), and this was followed by incubation with horseradish peroxidase-conjugated anti-rabbit or anti-mouse secondary antibodies (Stressgen, USA). Blots were developed using an enhanced chemiluminescence (ECL) solution (Thermo, USA).
(A western blot detects proteins with antibodies after separation by electrophoresis.)

The next experiment deals with Akt. As to the kind of experiment: Akt phosphorylation in N2a cells (western blot). The settings on record: compared with NGF (FIG. 10).
Source text: as §4

A further experiment concerns NGF. Description: NGF mRNA expression in N2a cells (quantitative RT-PCR). The settings on record: N2a cells (FIG. 13). The source says:
(§5) Since NGF-Trk signal pathway upregulates ChAT and VAChT, it is important to know whether ginsenosides Rd and Re regulate Trk activity directly or at least indirectly. Therefore, the inventor investigated whether the expression of ChAT and VAChT was blocked by treating K252a, an inhibitor against protein kinase C (PKC) and Trk together with ginsenoside Rd or Re, in order to determine more closely whether the expression of cholinergic surface markers and the differentiation of neurons by the treatment of ginsenosides Rd and Re are caused whereby they act NGF-TrkA pathway directly. Particularly, N2a cells were treated with or without K252a (50 nM) in the presence of NGF (100 ng/mL), Re (5 μg/mL) or Rd (5 μg/mL) for 48 h. Total RNA and protein lysates were isolated as described in the Example 4-1 (FIG. 12). […] In addition, the present inventor performed quantitative RT-PCR in order to verify whether the treatment of ginsenosides Rd and Re affect the expression of NGF and NGFR in N2a cells.

The subject of a further experiment is NGFR (p75). As to the kind of experiment: NGFR (p75) mRNA expression in N2a cells (quantitative RT-PCR). The settings on record: N2a cells (FIG. 13).
Source text: as §5

The values that follow come from US20160022751A1, “NOVEL COMPOSITION FOR TREATING ALZHEIMER'S DISEASE AND IMPROVING COGNITIVE FUNCTION OF ALZHEIMER'S PATIENTS” (GANGNEUNG-WONJU NATIONAL UNIVERSITY INDUSTRY ACADEMY …, priority 2014, published 2016).

With `CC(C)=CCC[C@](C)(O[C@@H]1O[C@H](CO)[C@@H](O)[C@H](O)[C@H]1O)[C@H]1CC[C@]2(C)[C@@H]1[C@H](O)C[C@@H]1[C@@]3(C)CC[C@H](O)C(C)(C)[C@@H]3[C@@H](O[C@@H]3O[C@H](CO)[C@@H](O)[C@H](O)[C@H]3O[C@@H]3O[C@@H](C)[C@H](O)[C@@H](O)[C@H]3O)C[C@]12C` [ginsenoside Re], in the experiment with CHT1, the “expression of CHT1” value is given as “increased”. Moreover, the “expression of MAP-2 mRNA” value with MAP-2 [1] was “significantly increased”. Besides, the “production of MAP-2 protein” value in the experiment with MAP-2 [2] is listed as “stimulated effectively the production of MAP-2 protein”. Besides, the p75 protein expression entry with p75 is given as “switched to p75-positive N2a cells to the same or more extent as NGF”. Besides, the “morphological changes of N2a cells” value with N2a cells is listed as “induced the production of distinctive multiple projections”. In addition, the “ERK activation (phosphorylation)” value with ERK was “could activate ERK and Akt with phosphorylation as much as NGF”. Also, the “Akt activation (phosphorylation)” value in the experiment on Akt is “could activate ERK and Akt with phosphorylation as much as NGF”. Also, the “NGF mRNA level” value in the experiment on NGF was “significantly increased”. The “NGFR (p75) mRNA level” value with NGFR (p75) is given as “significantly increased”.
For the molecule `CC(C)=CCC[C@](C)(O[C@@H]1O[C@H](CO)[C@@H](O)[C@H](O)[C@H]1O)[C@H]1CC[C@]2(C)[C@@H]1[C@H](O)C[C@@H]1[C@@]3(C)CC[C@H](O[C@@H]4O[C@H](CO)[C@@H](O)[C@H](O)[C@H]4O[C@@H]4O[C@H](CO)[C@@H](O)[C@H](O)[C@H]4O)C(C)(C)[C@@H]3CC[C@]12C` [ginsenoside Rd], the “expression of CHT1” value in the experiment with CHT1 is on record as “increased”. The “expression of MAP-2 mRNA” value in the experiment with MAP-2 [1] is given as “significantly increased”. Besides, the “production of MAP-2 protein” value with MAP-2 [2] is reported as “stimulated effectively the production of MAP-2 protein”. For the same molecule, in the experiment on p75, the p75 protein expression entry was “switched to p75-positive N2a cells to the same or more extent as NGF”. The “morphological changes of N2a cells” value in the experiment with N2a cells was “induced the production of distinctive multiple projections”. Besides, in the experiment on ERK, the “ERK activation (phosphorylation)” value is “could activate ERK and Akt with phosphorylation as much as NGF”. Besides, the “Akt activation (phosphorylation)” value in the experiment with Akt was “could activate ERK and Akt with phosphorylation as much as NGF”. Also, the “NGF mRNA level” value in the experiment with NGF was “significantly increased”. In addition, in the experiment with NGFR (p75), the “NGFR (p75) mRNA level” value was “significantly increased”.
